Laboratory results from PubChem BioAssay AID328 (DTP/NCI, 2004).
Several values for one entry are separate records, joined by “and”; a condition that tells them apart may be missing. Identical values can stand only once. Inconclusive results and toxic doses are left out. Non-standard residues stand in square brackets, D forms with d. Residues, ends and D or L forms follow the SMILES beside them. ξ: configuration not given here. *: point of attachment. Nphe = O=C(O)CNCc1ccccc1; ξF = NC(Cc1ccccc1)C(=O)O; Ms = CS(=O)(=O)*

System: BDF1 mice, P388 leukemia ip, median survival T/C
Assay: NCI In Vivo Anticancer Drug Screen. Data for tumor model P388 Leukemia (intraperitoneal) in B6D2F1 (BDF1) mice
Settings: endpoint: median survival time, higher = longer survival
Method in brief: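 Antitumour effect was judged in vivo: survival in drug-treated mice, normalised to that of vehicle-dosed controls, gives the reported T/C.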

[1] = dose: 100.0 mg/kg/injection, schedule: Q04DX003 (ip), vehicle: saline
[2] = dose: 50.0 mg/kg/injection, schedule: Q01DX009 (ip), vehicle: Klucel (hydroxypropylcellulose) (HPC)
[3] = dose: 100.0 mg/kg/injection, schedule: Q01DX009 (ip), vehicle: Klucel (hydroxypropylcellulose) (HPC)
[4] = dose: 100.0 mg/kg/injection, schedule: Q04DX003 (ip), vehicle: saline with Tween-80
[5] = dose: 200.0 mg/kg/injection, schedule: Q04DX003 (ip), vehicle: saline with Tween-80
[6] = dose: 400.0 mg/kg/injection, schedule: Q04DX003 (ip), vehicle: saline with Tween-80
[7] = dose: 50.0 mg/kg/injection, schedule: Q01DX009 (ip), vehicle: saline
[8] = dose: 200.0 mg/kg/injection, schedule: Q01DX009 (ip), vehicle: saline with Tween-80
[9] = dose: 264.0 mg/kg/injection, schedule: Q04DX003 (ip), vehicle: saline with Tween-80
[10] = dose: 6.25 mg/kg/injection, schedule: Q01DX009 (ip), vehicle: saline with Tween-80
[11] = dose: 12.5 mg/kg/injection, schedule: Q01DX009 (ip), vehicle: saline with Tween-80
[12] = dose: 25.0 mg/kg/injection, schedule: Q01DX009 (ip), vehicle: saline with Tween-80
[13] = dose: 12.5 mg/kg/injection, schedule: Q01DX009 (ip), vehicle: Klucel (hydroxypropylcellulose) (HPC)
[14] = dose: 25.0 mg/kg/injection, schedule: Q01DX009 (ip), vehicle: Klucel (hydroxypropylcellulose) (HPC)
[15] = dose: 200.0 mg/kg/injection, schedule: Q01DX009 (ip), vehicle: Klucel (hydroxypropylcellulose) (HPC)

For `COC1C(OC(=O)/C=C/C=C/C=C/C=C/C(=O)O)CCC2(CO2)C1C1(C)OC1CC=C(C)C` (configuration not stated), the T/C (dose: 88.0 mg/kg/injection, schedule: Q04DX003 (ip), vehicle: saline with Tween-80) was 281 % of control, the T/C [1] was 100 % of control and the T/C (dose: 132.0 mg/kg/injection, schedule: Q04DX003 (ip), vehicle: saline with Tween-80) was 281 % of control. The T/C (dose: 200.0 mg/kg/injection, schedule: Q04DX003 (ip), vehicle: saline) was 117 % of control.

With `CC1(C)CCSC(/C=C/c2ccccc2)=N1` the T/C [2] was 103 % of control and the T/C [3] was 121 % of control.

For `COc1ccc(OC)c(/C=C/c2ccc3ccccc3n2)c1`, the T/C (dose: 50.0 mg/kg/injection, schedule: Q04DX003 (ip), vehicle: saline with Tween-80) was 105 % of control, the T/C [4] was 100 % of control and 105 % of control and the T/C [5] was 110 % of control. For the same molecule, the T/C [6] was 100 % of control.

`O=C1CCC(=O)N1CO` was tested, and the T/C (dose: 25.0 mg/kg/injection, schedule: Q04DX003 (ip), vehicle: saline) was 109 % of control, the T/C (dose: 44.0 mg/kg/injection, schedule: Q04DX003 (ip), vehicle: saline) was 95 % of control and the T/C (dose: 50.0 mg/kg/injection, schedule: Q04DX003 (ip), vehicle: saline) was 104 % of control. For the same molecule, the T/C (dose: 66.0 mg/kg/injection, schedule: Q04DX003 (ip), vehicle: saline) was 109 % of control, the T/C [1] was 118 % of control and the T/C (dose: 300.0 mg/kg/injection, schedule: Q04DX003 (ip), vehicle: saline) was 159 % of control.

In the case of `CCCc1nn2c(-c3ccccc3)nnc2o1`, the T/C [4] is reported as 110 % of control, the T/C [5] is reported as 115 % of control and the T/C [6] is reported as 110 % of control.

In the case of `CCCCCC[C@H]([C@H](C)O)n1cnc2c(N)ncnc21`, the T/C (dose: 15.0 mg/kg/injection, schedule: Q01DX009 (ip), vehicle: saline) is reported as 105 % of control, the T/C (dose: 22.0 mg/kg/injection, schedule: Q01DX009 (ip), vehicle: saline) is reported as 105 % of control and the T/C (dose: 33.0 mg/kg/injection, schedule: Q01DX009 (ip), vehicle: saline) is reported as 104 % of control. For the same molecule, the T/C [7] was 101 % of control.

With `COC(=O)/C=C1/C(=O)N(C)c2ccccc21` the T/C (dose: 50.0 mg/kg/injection, schedule: Q01DX009 (ip), vehicle: saline with Tween-80) was 122 % of control, the T/C (dose: 100.0 mg/kg/injection, schedule: Q01DX009 (ip), vehicle: saline with Tween-80) was 98 % of control and the T/C [8] was 104 % of control.

For `Nc1cc(I)c2cccnc2c1O`, the T/C (dose: 6.25 mg/kg/injection, schedule: Q01DX009 (ip), vehicle: saline) was 93 % of control and 115 % of control, the T/C (dose: 12.5 mg/kg/injection, schedule: Q01DX009 (ip), vehicle: saline) was 90 % of control and 99 % of control and the T/C (dose: 25.0 mg/kg/injection, schedule: Q01DX009 (ip), vehicle: saline) was 123 % of control. For the same molecule, the T/C [7] was 117 % of control and the T/C (dose: 100.0 mg/kg/injection, schedule: Q01DX009 (ip), vehicle: saline) was 124 % of control.

In the case of `COc1cc(/C=N\NC(=O)c2cccc(Cl)c2)ccc1N(CCCl)CCCl`, the T/C [9] is reported as 173 % of control, the T/C [6] is reported as 234 % of control and the T/C (dose: 600.0 mg/kg/injection, schedule: Q04DX003 (ip), vehicle: saline with Tween-80) is reported as 260 % of control.

In the case of `S=C1SCN(Cc2cccs2)CN1Cc1cccs1`, the T/C (dose: 50.0 mg/kg/injection, schedule: Q01DX005 (ip), vehicle: saline with Tween-80) is reported as 99 % of control, the T/C (dose: 100.0 mg/kg/injection, schedule: Q01DX005 (ip), vehicle: saline with Tween-80) is reported as 87 % of control and the T/C (dose: 200.0 mg/kg/injection, schedule: Q01DX005 (ip), vehicle: saline with Tween-80) is reported as 95 % of control.

In the case of `CS(=O)(=O)N(CC(=O)NC(Cc1ccccc1)C(=O)O)Cc1ccccc1` (configuration not stated) (Ms-[Nphe]-[ξF]-OH), the T/C (dose: 12.5 mg/kg/injection, schedule: Q04DX003 (ip), vehicle: sodium bicarbonate) is reported as 100 % of control, the T/C (dose: 25.0 mg/kg/injection, schedule: Q01DX009 (ip), vehicle: other) is reported as 114 % of control and the T/C (dose: 25.0 mg/kg/injection, schedule: Q04DX003 (ip), vehicle: other) is reported as 94 % of control. For the same molecule, the T/C (dose: 25.0 mg/kg/injection, schedule: Q04DX003 (ip), vehicle: sodium bicarbonate) was 106 % of control, the T/C (dose: 50.0 mg/kg/injection, schedule: Q01DX009 (ip), vehicle: other) was 100 % of control and the T/C (dose: 50.0 mg/kg/injection, schedule: Q04DX003 (ip), vehicle: other) was 103 % of control. For the same molecule, the T/C (dose: 50.0 mg/kg/injection, schedule: Q04DX003 (ip), vehicle: sodium bicarbonate) was 104 % of control, the T/C (dose: 100.0 mg/kg/injection, schedule: Q01DX009 (ip), vehicle: other) was 114 % of control and the T/C (dose: 100.0 mg/kg/injection, schedule: Q04DX003 (ip), vehicle: other) was 106 % of control. The T/C (dose: 100.0 mg/kg/injection, schedule: Q04DX003 (ip), vehicle: sodium bicarbonate) was 96 % of control, the T/C (dose: 200.0 mg/kg/injection, schedule: Q04DX003 (ip), vehicle: other) was 104 % of control and the T/C (dose: 200.0 mg/kg/injection, schedule: Q04DX003 (ip), vehicle: sodium bicarbonate) was 98 % of control. The T/C (dose: 400.0 mg/kg/injection, schedule: Q04DX003 (ip), vehicle: other) was 103 % of control and the T/C (dose: 400.0 mg/kg/injection, schedule: Q04DX003 (ip), vehicle: sodium bicarbonate) was 90 % of control.

`CC[C@H](CC[C@@H](C)[C@H]1CC[C@H]2[C@@H]3CC[C@H]4C[C@@H](O)CC[C@]4(C)[C@H]3CC[C@]12C)C(C)C` was tested, and the T/C [4] was 100 % of control, the T/C [8] was 95 % of control and the T/C (dose: 400.0 mg/kg/injection, schedule: Q01DX009 (ip), vehicle: saline with Tween-80) was 100 % of control. For the same molecule, the T/C [6] was 86 % of control.

For `CCC1=C2C(=O)c3ccccc3C2=C(C)S(=O)(=O)O1`, the T/C [10] was 113 % of control and 118 % of control, the T/C [11] was 118 % of control and the T/C [12] was 122 % of control.

For `Cc1ncc2n1C=CN(C(=O)c1ccc([N+](=O)[O-])cc1)C2O` (configuration not stated), the T/C (dose: 50.0 mg/kg/injection, schedule: Q01DX009 (ip), vehicle: water) was 103 % of control, the T/C (dose: 100.0 mg/kg/injection, schedule: Q01DX009 (ip), vehicle: water) was 94 % of control and the T/C (dose: 100.0 mg/kg/injection, schedule: Q04DX003 (ip), vehicle: water) was 102 % of control. The T/C (dose: 200.0 mg/kg/injection, schedule: Q01DX009 (ip), vehicle: water) was 93 % of control, the T/C (dose: 200.0 mg/kg/injection, schedule: Q04DX003 (ip), vehicle: water) was 93 % of control and the T/C (dose: 400.0 mg/kg/injection, schedule: Q01DX009 (ip), vehicle: water) was 94 % of control. The T/C (dose: 400.0 mg/kg/injection, schedule: Q04DX003 (ip), vehicle: water) was 98 % of control.

In the case of `O=S1(=O)C=CCC2C3CCC(C3)C21` (configuration not stated), the T/C (dose: 100.0 mg/kg/injection, schedule: Q01DX001 (ip), vehicle: saline with Tween-80) is reported as 100 % of control and the T/C (dose: 200.0 mg/kg/injection, schedule: Q01DX001 (ip), vehicle: saline with Tween-80) is reported as 106 % of control.

With `COc1ccc(OC)c(/C=C/[N+](=O)[O-])c1` the T/C [13] was 108 % of control, the T/C [14] was 113 % of control and 120 % of control and the T/C [2] was 113 % of control. The T/C [3] was 116 % of control.

With `O.[Cu].[Cu]` the T/C (dose: 6.25 mg/kg/injection, schedule: Q01DX009 (ip), vehicle: Klucel (hydroxypropylcellulose) (HPC)) was 90 % of control, the T/C (dose: 6.25 mg/kg/injection, schedule: Q04DX003 (ip), vehicle: Klucel (hydroxypropylcellulose) (HPC)) was 90 % of control and the T/C [13] was 110 % of control. The T/C (dose: 12.5 mg/kg/injection, schedule: Q04DX003 (ip), vehicle: Klucel (hydroxypropylcellulose) (HPC)) was 90 % of control, the T/C [14] was 95 % of control and the T/C (dose: 25.0 mg/kg/injection, schedule: Q04DX003 (ip), vehicle: Klucel (hydroxypropylcellulose) (HPC)) was 118 % of control.

For `CSc1nc(SC)c2[nH]cnc2n1`, the T/C (dose: 3.13 mg/kg/injection, schedule: Q01DX009 (ip), vehicle: saline with Tween-80) was 87 % of control, the T/C [10] was 99 % of control and the T/C [11] was 91 % of control. For the same molecule, the T/C [12] was 94 % of control.

For `O=C(CC(NC(=O)OCc1ccccc1)C(=O)O)OCc1ccccc1` (configuration not stated), the T/C [2] was 122 % of control, the T/C [3] was 111 % of control and the T/C [4] was 104 % of control. For the same molecule, the T/C [15] was 111 % of control, the T/C [5] was 100 % of control and the T/C [9] was 100 % of control. The T/C (dose: 400.0 mg/kg/injection, schedule: Q01DX009 (ip), vehicle: Klucel (hydroxypropylcellulose) (HPC)) was 94 % of control and the T/C [6] was 100 % of control and 109 % of control.

In the case of `Cn1c(-c2ccccc2)c(C(=O)O)c(C(=O)O)c1-c1ccccc1`, the T/C [2] is reported as 95 % of control, the T/C [3] is reported as 90 % of control and the T/C [15] is reported as 96 % of control.
